Results as given in PubChem BioAssay AID179 (DTP/NCI, 2004).
“And” between values parts separate entries of the source, which are not always exact repeats. Identical values can stand only once. The source made the active and inactive calls.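 Rule for the calls: active = compounds giving half or more protection of infected cells from virus-caused growth loss, again on retest; inactive = the rest.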 Where a SMILES comes first, the peptide text is derived from it. The star is where a group is joined. Myristoyl = CCCCCCCCCCCCCC(=O)*; ONb = O=[N+]([O-])c1ccc(CO*)cc1; Cbz = O=C(OCc1ccccc1)*

Tested on: CEM cells HIV-1 protection, formazan growth assay
Experiment: NCI AIDS Antiviral Assay
Settings: for IC50: measured here: growth of uninfected CEM cells
Procedure, shortened: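 Protection of CEM cells against HIV-1 measured as cell growth via soluble formazan read-out, with five concentrations tested on both infected and uninfected cells; failure to protect may reflect toxicity.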

Row | SMILES | EC50 [µM] | IC50 | outcome
1 | CC(C)CC(NC(=O)C(Cc1cnc[nH]1)NC(=O)C(Cc1ccccc1)NC(=O)C1CCCN1C(=O)OCc1ccccc1)C(=O)NC(CC(C)C)C(=O)NC(C(=O)NC(Cc1ccc(O)cc1)C(=O)NC(CO)C(=O)OCc1ccc([N+](=O)[O-])cc1)C(C)C (configuration not stated) (Cbz-PFHLLVYS-ONb; configuration not given here) | > 11 | > 11 µM | 
2 | CCCCCCC(O)CCCC(O)C1CCC(C2CCC(C(O)CCCCCCCCCCCCC3=CC(C)OC3=O)O2)O1 (configuration not stated) |  |  | inactive
3 | Nc1ccn(C2CSC(CO)CO2)c(=O)n1 (configuration not stated) | > 513 | 407 µM | 
4 | CC1(C)Oc2cc3oc(=O)ccc3c3c2C2C1CCC(C)(O3)C2O (configuration not stated) | > 759 | 316 µM | 
5 | CC(C)N1[C@@H]2CCCC[C@H]2N(C(C)C)[P+]1=O | > 200 | > 200 µM | 
6 | CCc1cc(-c2ccc(OC)cc2)c(C#N)c(=S)n1C1OC(COC(C)=O)C(OC(C)=O)C(OC(C)=O)C1OC(C)=O (configuration not stated) | > 200 | 14.5 µM and 12.3 µM | 
7 | O=c1oc2ccccc2c(O)c1[N+](=O)[O-] | > 200 | > 200 µM | 
8 | O=C1OC(=C(Cl)Cl)C2C3c4ccccc4C(c4ccccc43)C12 (configuration not stated) | > 100 | 47.9 µM | 
9 | CCCc1cc(=O)oc2c3c(cc(OC(C)C)c12)O[C@@H](C)[C@H](C)[C@H]3O | > 200 | 11.7 µM | 
10 | C/C=C/C=Nc1c(C#N)c2n(c1C(=O)Nc1ccccc1)CCCC2 | > 50.1 | > 50.1 µM | 
11 | Oc1cc2c(cc1C(c1cc3c(cc1O)OCO3)c1cc3c(cc1O)OCO3)OCO2 | > 117 | 22.4 µM | 
12 | c1ccc(N=c2nc(Nc3ccccc3)ss2)cc1 | > 200 | 30.9 µM | 
13 | Clc1ccc2c(NCCCCN=Cc3ccccc3)ccnc2c1 | > 200 | 26.9 µM | 
14 | CCOP(=O)(CCC(O)CNc1nc(N)nc(Cl)c1N=Nc1ccc(Cl)cc1)OCC (configuration not stated) | > 200 | 6.46 µM | 
15 | BrC1=C(Br)C2(SCCS2)[C@H]2C[C@@H]1c1ccccc12 | > 200 | 8.71 µM | 
16 | Oc1c(Br)ccc2cccnc12 | > 20 | 0.794 µM | 
17 | C1CN(SSN2CCSCC2)CCS1 | > 5.37 | > 5.37 µM | 
18 | O=[N+]([O-])c1cc(F)ccc1S(=O)(=O)c1ccccc1 | > 200 | 35.5 µM | 
19 | CC1=CN2C(c3ccccc3)=NON(c3ccc(C)cn3)C2C=C1 (configuration not stated) | > 21.4 | > 21.4 µM | 
20 | COC1OC2C(CO)OC(n3ncc4c3ncn3cnnc43)C2O1 (configuration not stated) | > 234 | > 234 µM | 
21 | CC(C)=CC1CC(n2cc(C)c(=O)[nH]c2=O)ON1CCO[Si](C)(C)C(C)(C)C (configuration not stated) |  |  | inactive
22 | N#CC(/C(=N/NC(=O)C(=O)NN)C(=O)NC12CC3CC(CC(C3)C1)C2)c1ccccc1 (configuration not stated) | > 155 | > 155 µM | 

Row | SMILES | EC50 [µM] | IC50 | outcome
23 | COC(C)(C)C/C=C/C(C)=C/C=C/C(C)=C\C=C\C(C)=C\C=C\C=C(C)\C=C\C=C(C)\C=C\C=C(C)\C=C\CC(C)(C)OC |  |  | inactive
24 | CC1(C)COC2(C)ON12 (configuration not stated) | > 200 | > 200 µM | 
25 | Cc1cc(NC(=O)Nc2cc(F)ccc2F)no1 | > 200 | 123 µM | 
26 | O=C(NC1=NC2C=CC([N+](=O)[O-])=CC2S1)C(=O)Nn1c(=S)[nH]c2ccccc2c1=O (configuration not stated) | > 81.3 | 74.1 µM | 
27 | COc1ccc(/C=C/C(=O)OCCc2ccccc2)cc1O | > 8.32 | 4.47 µM | 
28 | N#Cc1c(Cl)c2cc([N+](=O)[O-])ccc2n2c1nc1ccccc12 | > 20 | 0.813 µM | 
29 | CN(C)C=NCCN1CCOCC1 | > 200 | > 200 µM | 
30 | CC1C(=O)CC2OC3CC(C)(Cl)C(Br)CC31C2(C)C (configuration not stated) |  |  | inactive
31 | COc1cc(/C=C2\SC(=S)N(/C=C(/C#N)C(=O)c3ccc4ccccc4c3)C2=O)cc(OC)c1OC | > 200 | 14.8 µM | 
32 | CNc1ncc(-c2nnnn2-c2ccccc2)c(CN(C)C)n1 | > 200 | > 200 µM | 
33 | O=C(O)Cc1ccc2c(c1)C(=O)c1ccccc1CO2 |  |  | inactive
34 | O=C(CCCN1CCC2(CC1)C(=O)NCN2c1ccc(F)cc1)c1ccc(F)cc1 | > 200 | > 200 µM | 
35 | CC12CCC(=O)N1[C@@H](c1ccccc1)[C@@H](c1ccccc1)O2 (some centres not stated) | > 234 | > 234 µM | 
36 | O=c1c2ccccc2c(=O)c2cc3c(=O)n(-c4ccccc4)c(=O)c3cc12 |  |  | inactive
37 | CC1(c2nc3cc(Cl)c(Cl)cc3[nH]2)CCC(CO)C(C)(C)O1 (configuration not stated) |  |  | inactive
38 | N#CCCC(CCC#N)(CCC#N)[N+](=O)[O-] | > 200 | > 200 µM | 
39 | COc1cc(-c2ccc(Br)[nH]2)[nH]c1C=NCC(C)C | > 200 | 10.5 µM | 
40 | Cc1c2c(n(CCc3ccccc3)c1C)NN=C(C#N)S2(=O)=O | > 200 | > 200 µM | 
41 | Cc1ccc(NC(=O)CC2C(=O)Nc3ccccc3S2(=O)=O)c(C)c1 (configuration not stated) | > 4.07 | > 4.07 µM | 
42 | Cc1ccc2c(c1)C(=O)/C(=C\c1ccccc1)CCS2(=O)=O | > 200 | 2.88 µM | 
43 | O=C1OC2C(O)COC2(O)C1(O)Cc1cc(O)c(O)c(Br)c1Br (configuration not stated) |  |  | inactive
44 | CC(=O)NC1C(OCc2ccccc2)OC(CO)C(O)C1OCC(=O)NC(C)C(=O)NC(CCC(=O)NCCCCNc1ccc([N+](=O)[O-])c2[nH]c3ccccc3c(=O)c12)C(N)=O (configuration not stated) | 81.3 | > 100 µM | 

Row | SMILES | EC50 [µM] | IC50 | outcome
45 | O=C1CC(c2cccc(Cl)c2)n2cccc21 (configuration not stated) | > 200 | 93.3 µM | 
46 | CC(C)[Si](OCC/C=C/C1CCC(=O)C1C(O)C1CCCCC1)(C(C)C)C(C)C (configuration not stated) |  |  | inactive
47 | COc1ccc(OC)c2c1C(=O)C1CC1(Br)C2=O (configuration not stated) |  |  | inactive
48 | C[N+]12C(=O)CC3OCC=C4C[N+]5(C)CCC6(c7ccccc71)C2C3C4CC65O (configuration not stated) | > 398 | 224 µM | 
49 | Clc1ccc(C(Cc2ccccc2)c2c(Cl)nc(N3CCNCC3)nc2Cl)cc1 (configuration not stated) | > 200 | 9.12 µM | 
50 | O=C(/C=C/c1ccc(OCc2cccc(Cl)c2)cc1)NO | > 200 | 25.7 µM | 
51 | C=C1C(=O)[C@@]23C(O)C[C@@H]4C(C)(C)CCCC4(COC(C)=O)[C@@H]2[C@@H](O)C[C@@H]1[C@H]3O (some centres not stated) | > 631 | 1.95 µM and 1.02 µM | 
52 | NC(=O)C(c1ccccc1)N1CCOCC1 (configuration not stated) | > 200 | 1.02 µM | 
53 | O=c1ccn([C@@H]2C[C@@H]2CO)c(=O)[nH]1 |  |  | inactive
54 | O=C(Nc1ccccn1)c1ccccc1[Se][Se]c1ccccc1C(=O)Nc1ccccn1 | 3.55 | 8.13 µM | 
55 | Cc1cc2c(cc1Cl)SC(NNC1=NCCN1)=NS2(=O)=O | > 200 | 115 µM | 
56 | COc1ccc2nc3cc(Cl)ccc3c(Sc3ccc(NC(C)=O)cc3)c2c1 | > 12.6 | > 12.6 µM | 
57 | O=c1c2c([nH]c3c1ccc1[nH]c4c(c(=O)c13)CCCC4)CCCC2 | > 42.7 | > 42.7 µM | 
58 | [N-]=[N+]=Nc1ccc2c(c1)Sc1ccccc1N2CCCCCl | > 200 | 26.9 µM | 
59 | N#Cc1cccc(NC(=O)c2ccc(C(=O)O)c(C(=O)c3ccc(C(=O)O)c(C(=O)Nc4cccc(C#N)c4)c3)c2)c1 | > 170 | > 170 µM | 
60 | CCCCCCCCCCCCCC(=O)NCC(=O)NC(CC(N)=O)C(=O)NC(C)C(=O)NC(C)C(=O)NC(C)C(=O)NC(C)C(=O)NC(CCCCN)C(=O)NC(CCCCN)C(=O)NCC(=O)NC(Cc1ccc(O)cc1)C(N)=O (configuration not stated) (Myristoyl-GNAAAAKKGY-NH2; configuration not given here) | > 214 | > 214 µM | 
61 | N#C/C(=C/c1ccc([N+](=O)[O-])o1)c1ccccc1 | > 1050 | 61.7 µM | 
62 | On1c(-c2ccccc2)c(-c2ccccc2N2CCCC2)c2ccccc21 |  |  | inactive
63 | N#CI1OC(C(F)(F)F)(C(F)(F)F)c2ccccc21 | > 200 | 9.55 µM | 
64 | Cc1nn(C(=O)Cc2ccccc2)c2c1C(c1ccc(O)cc1)SC(N)=N2 (configuration not stated) | 83.2 | > 200 µM | 
65 | CNc1c(Cl)cccc1S(=O)(=O)c1ccccc1[N+](=O)[O-] | 3.31 | > 200 µM | 
66 | Oc1ccc(O)c(-n2cccn2)c1-n1cccn1 | > 110 | 42.7 µM | 

Row | SMILES | EC50 [µM] | IC50 | outcome
67 | Nc1ncnc2c1nc(Br)n2C(C=O)OC(C=O)CO (configuration not stated) |  |  | inactive
68 | CC1=NOC2(C1)C(=O)Nc1ccccc12 (configuration not stated) | > 200 | 141 µM | 
69 | O=C(O)C(CO)NC(=O)n1c2ccccc2c2ccccc21 (configuration not stated) | > 832 | 537 µM | 
70 | O=C(NNC(=S)NC1OC(CO)C(O)C(O)C1O)c1cccc(C(=O)NNC(=S)NC2OC(CO)C(O)C(O)C2O)n1 (configuration not stated) |  | > 200 µM | 
71 | C=C1CC[N+]2(CC(C)C)CCCC12 (configuration not stated) | > 501 | > 501 µM | 
72 | CC1(C)OC(=O)C(C(N)=O)=C1/C=C1\OC(=O)c2ccccc21 | > 24 | > 24 µM | 
73 | Cc1nc2c(n1-c1ccc(Br)cc1)C(=O)c1ccccc1C2=O | > 49 | 5.25 µM | 
74 | NC(=O)N/N=C1/C2CC3CC(C2)C1C3 (configuration not stated) | > 200 | > 200 µM | 
75 | O=C(O)/C=C\CCCCC(=O)O | > 1450 | > 1450 µM | 
76 | Nc1nc(=O)[nH]c(N)c1N=O | > 200 | > 200 µM | 
77 | C=CC1(C)CCC2=C(CCC3C(C)(C(=O)OC)CCCC23C)C1=O (configuration not stated) | > 200 | 28.8 µM | 
78 | Cc1cc(S(=O)(=O)Nc2nc(N)n(C)n2)c(S)cc1Cl | > 200 | > 200 µM | 
79 | N#CC(C(=O)/C(=N/NC(=O)c1ccccc1O)C(C#N)c1ccc(Br)cc1)c1ccc(Br)cc1 (configuration not stated) | > 23.4 | > 23.4 µM | 
80 | O=[p+]1c2ccccc2[nH]c2ccccc21 | > 200 | 56.2 µM | 
81 | O=C(Nc1ccc(Br)cc1)c1c(-c2ccccc2)c2ccc(O)cc2oc1=O | > 34.7 | 32.4 µM | 
82 | COc1ccc(C2=C(OC(=O)N(C)C)c3cccn3-c3cc(Cl)ccc3S2)cc1 | > 100 | 87.1 µM | 
83 | CCCCCc1cc(O)cc2c1Oc1cc(O)cc(C(=O)CCCC)c1C(=O)O2 | > 56.2 | 28.2 µM | 
84 | CC(=O)C(CN(C)Cc1ccccc1)C(c1ccccc1)c1c(O)c2ccccc2oc1=O (configuration not stated) | > 38.9 | > 38.9 µM | 
85 | C[n+]1c2ccccc2c(CNc2ccc(S(=O)(=O)N=C(N)N)cc2)c2ccccc21 |  |  | inactive
86 | CC(C)=CCc1cc2c(cc1O)OC[C@H]1c3cc4c(cc3O[C@@H]21)OCO4 | > 53.7 | 2.09 µM | 
